What all share (assay type): in vivo
Test [1] has as its system 3rd-instar larvae of Spodoptera exigua Hübner. Briefly: Joint toxicity of I-72 + emamectin benzoate, leaf-disk dipping, Example 9, Table 9. The following applies: Spodoptera exigua, cabbage leaf-disk dipping, 72 h, A = compound I-72, B = emamectin benzoate, read-out: LC50. The source says:
Test subject: 3rd-instar larvae of Spodoptera exigua Hübner, a sensitive strain reared indoors.
Experimental method: the dipping method was adopted. The cabbage leaves cultivated in the greenhouse were taken, the surface wax layer was removed, and leaf disks with a diameter of 3 cm were made with a puncher. The leaf disks were dipped in the prepared pesticide solution for 10 s, and then put into a 9-cm-diameter Petri dish lined with filter paper. After natural air-drying in the shade, the standard test insects were introduced, with 10 insects placed in each dish and 3 replicates performed. The treated test insects were placed in an observation room under certain conditions. The reaction of the test insects was regularly observed, and the number of dead and live insects was investigated 72 h later.
The test conditions, the preparation of the pesticide solution and the evaluation method were the same as those in Example 1.

For test [2], the system named is adult Phyllotreta vittuta Fabr. Briefly: Joint toxicity of I-72 + acetamiprid, Example 65, Table 65. The note with it: A = compound I-72, B = acetamiprid; potted cabbage seedling spraying; 72 hours; read-out: LC50. Here is the method:
Test target: adult Phyllotreta vittuta Fabr.
(§1) Preparation of the pesticide solution: according to different test requirements, the test samples were accurately weighed respectively with an electronic analytical balance. The technical pesticides were dissolved in acetone, and then diluted with 0.1% Tween 80 water into a series of pesticide solutions with a certain concentration gradient according to the experimental design dosage.
Experimental method: first, uniform and consistent potted cabbage seedlings were selected. Then, uniform spraying was performed with the pesticide solution in the order from low dosage to high dosage according to the experimental design. After air-drying in the shade, adult flea beetles were transferred onto the treated cabbage seedlings, and then glass covers were put on them, with about 30-40 adult flea beetles on each seedling and 3 replicates for each treatment. In addition, a blank control was set up.
The treated test materials were placed in an observation room, and the temperature, humidity and illumination of the observation room could be adjusted as needed. The number of dead and live insects was investigated 72 hours later.

Test [3] relates to 3rd-instar larvae of Plutella xylostella. As to the kind of experiment: Joint toxicity of I-72 + chlorpyrifos, leaf-disk dipping, Example 16, Table 16. The following applies: 3rd-instar larvae, cabbage leaf-disk dipping, 72 h, A = compound I-72, B = chlorpyrifos, read-out: LC50. Here is the method: Test target: 3rd-instar larvae of Plutella xylostella.
as §1
Experimental method: first, fresh cabbage leaves cultivated in the greenhouse were selected. The cabbage leaves were made into circular leaf disks with a diameter of 3 cm using a puncher and dipped in the prepared pesticide solution for 10 s in the order from low dosage to high dosage according to the experimental design. After natural air-drying in the shade, they were placed in a 9-cm-diameter Petri dish with filter paper, and uniform and healthy test insects were introduced, with 10 insects for each treatment and 3 replicates for each treatment. In addition, a blank control was set up.
The treated test materials were placed in an observation room, and the temperature, humidity and illumination of the observation room could be adjusted as needed. […] Then, the co-toxicity coefficient of each ratio was calculated using the Sun Y-P method to evaluate the mixing effect (the same as in Example 1).

For test [4], the system named is 3rd-instar larvae of Chilo suppressalis (Walker). Briefly: Joint toxicity of I-72 + methoxyfenozide, Example 53, Table 53. The following applies: A = compound I-72, B = methoxyfenozide, rice stem dipping, 72 hours, read-out: LC50. Here is the method:
Test target: 3rd-instar larvae of Chilo suppressalis (Walker).
as §1
Experimental method: first, tender rice stems were selected and dipped in the prepared pesticide solution for 10 s in the order from low dosage to high dosage according to the experimental design. After natural air-drying in the shade, they were placed in a 9-cm-diameter Petri dish with filter paper, and uniform and healthy test insects were introduced, with 10 insects for each treatment and 3 replicates for each treatment. In addition, a blank control was set up.
The treated test materials were placed in an observation room, and the temperature, humidity and illumination of the observation room could be adjusted as needed. The number of dead and live insects was investigated 72 hours later. […] Then, the co-toxicity coefficient of each ratio was calculated using the Sun Y-P method to evaluate the mixing effect (the same as in Example 1).

For test [5], the system named is Thrips flavus Schrank nymphs. As to the kind of experiment: Joint toxicity of I-72 + flonicamid, Example 78, Table 78. The following applies: Thrips flavus; A = compound I-72, B = flonicamid; eggplant seedling spraying; 48 hours; read-out: LC50. Here is the method: Test target: Thrips flavus Schrank nymphs.
as §1
Experimental method: first, eggplant seedlings with Thrips flavus Schrank were selected, and the base number was counted. Then, uniform spraying was performed with the pesticide solution in the order from low to high doses according to the experimental design, with 2 mL for each seedling and 3 replicates for each treatment. In addition, a blank control was set up.
The treated test materials were placed in an observation room, and the temperature, humidity and illumination of the observation room could be adjusted as needed. The number of dead and live insects was investigated 48 hours later. […] Then, the co-toxicity coefficient of each ratio was calculated using the Sun Y-P method to evaluate the mixing effect (the same as in Example 1).

The next test relates to Pyrrhalta aenescens. As to the kind of experiment: Joint toxicity of I-72 + fenobucarb, insect-dipping, Example 24, Table 24. The note with it: A = compound I-72, B = fenobucarb, insect-dipping, 24 hours, read-out: LC50. Here is the method: Test target: Pyrrhalta aenescens, a strain reared indoors.
Experimental method: the insect-dipping method was adopted. Pyrrhalta aenescens of the same size were selected, put into an insect-dipping cage, and evenly […] the pesticide solution in the order from low dosage to high dosage according to the experimental design, with dipping for 10 s for each treatment. They were placed in a 9-cm-diameter Petri dish with filter paper. After natural air-drying in the shade, feed was added, with 3 replicates for each treatment. In addition, a blank control was set up.
The treated test materials were placed in an observation room. The total number of test insects and the number of dead insects were investigated 24 hours later. The temperature, humidity and illumination of the observation room could be adjusted as needed. The test conditions, the preparation of the pesticide solution and the evaluation method were the same as those in Example 1.

For test [6], the system named is 3rd-instar larvae of Plutella xylostella. Briefly: Joint toxicity of I-72 + metaflumizone, airbrush spraying, Example 4, Table 4. The note with it: Plutella xylostella, foliar, airbrush spraying of cabbage leaf disks, 72 h, A = compound I-72, B = metaflumizone, read-out: LC50. Here is the method:
Test target: 3rd-instar larvae of Plutella xylostella, a sensitive strain reared indoors.
Test conditions: temperature: 25-27° C., humidity: RH 60%, and illumination: L:D=14:10
Experimental method: the airbrush spraying method was adopted. The cabbage cultivated in the greenhouse was taken and made into leaf disks with a diameter of 3 cm. After uniform spraying treatment with an airbrush manual sprayer, the leaf disks were placed in a 9-cm Petri dish lined with filter paper. After natural air-drying in the shade, the standard test insects were introduced, and the number of dead and live insects was investigated 72 h later.
The preparation of the pesticide solution and the evaluation method (Sun Y-P) for the joint action type of the mixture were the same as those in Example 1.

Turning to `CN(C(=O)c1ccc2c(c1)OC(F)(F)O2)c1cccc(C(=O)Nc2c(Br)cc(C(F)(C(F)(F)F)C(F)(F)F)cc2OC(F)F)c1F` [Compound I-72], the LC50 was 0.241 µg/mL in test [1]; 1.14 µg/mL in test [2]; 0.09 µg/mL in test [3]; 1.02 µg/mL in test [4]; 1.9 µg/mL in test [5]; 1.33 µg/mL with Pyrrhalta aenescens. Also, the LC50 in test [6] was 0.0867 µg/mL.

A word on the LC50: it is the concentration lethal to half of the exposed cells or organisms.

(Values after patent US20260198495A1, “BINARY INSECTICIDE COMPOSITION AND USE THEREOF” (SHENYANG SINOCHEM AGROCHEMICALS R & D CO., LTD., priority 2022, published 2026).)
